The structures appear in SMILES notation. Read-outs that look alike come from different tables or passages of the source. Bounds are passed on as bounds.

This is an account of results in publication PMC8320603 (Current Research in Toxicology, 2021).

Data set [1] concerns the target CYP3A4 (Homo sapiens, UniProt P08684). The following applies: supersomes, 10 µM, at 60 min.
Data set [2] has as its target T1, CYP1A2 (Homo sapiens, UniProt P05177).
T1 sequence (P05177 1-516): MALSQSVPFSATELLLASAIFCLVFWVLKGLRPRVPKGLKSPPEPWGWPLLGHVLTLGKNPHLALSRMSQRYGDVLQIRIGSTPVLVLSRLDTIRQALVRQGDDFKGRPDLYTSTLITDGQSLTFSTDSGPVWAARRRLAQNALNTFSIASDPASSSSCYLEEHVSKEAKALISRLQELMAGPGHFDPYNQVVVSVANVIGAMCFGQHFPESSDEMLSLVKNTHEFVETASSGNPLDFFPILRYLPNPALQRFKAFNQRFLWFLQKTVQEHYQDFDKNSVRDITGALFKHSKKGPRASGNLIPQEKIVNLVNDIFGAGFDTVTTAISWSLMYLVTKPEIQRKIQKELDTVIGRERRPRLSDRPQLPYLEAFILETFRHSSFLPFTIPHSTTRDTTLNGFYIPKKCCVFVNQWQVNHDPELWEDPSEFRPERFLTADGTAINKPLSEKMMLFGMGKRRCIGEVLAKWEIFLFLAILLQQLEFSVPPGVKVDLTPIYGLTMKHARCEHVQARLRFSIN
Description: CYP screening of gefitinib and erlotinib with human pooled supersomes. Type of data set: in vitro ADME. The following applies: 10 µM, at 60 min.

In data set [3] the target is CYP2D6 (Homo sapiens, UniProt P10635). The description is as above. The settings on record: 10 µM. Type of data set: in vitro ADME.
In data set [4] the test system is cryopreserved pooled human primary hepatocytes.
Data set [5] has as its system plasma proteins. Description: Human plasma rapid equilibrium dialysis. The format is in vitro ADME. The following applies: pooled human plasma, 4 h of shaking, 10 µM, monitored drug alone. In general terms: In equilibrium dialysis free small molecules cross a membrane that holds back macromolecules.
The subject of data set [6] is plasma proteins. The following applies: cited from earlier work.
Where [7] appears, read: 4 h, 10 µM each, monitored drug + Flx.
[8] abbreviates: 4 h, 10 µM each, monitored drug + Flx + Los.
[9] abbreviates: 4 h, 10 µM each, monitored drug + Los.
Where [10] appears, read: 4 h incubation, 10 µM, monitored drug alone.
Where [11] appears, read: 4 h, 10 µM each, monitored drug + Erl.
[12] abbreviates: 4 h, 10 µM each, monitored drug + Gef.

CYP2D6, sequence (P10635 whole entry): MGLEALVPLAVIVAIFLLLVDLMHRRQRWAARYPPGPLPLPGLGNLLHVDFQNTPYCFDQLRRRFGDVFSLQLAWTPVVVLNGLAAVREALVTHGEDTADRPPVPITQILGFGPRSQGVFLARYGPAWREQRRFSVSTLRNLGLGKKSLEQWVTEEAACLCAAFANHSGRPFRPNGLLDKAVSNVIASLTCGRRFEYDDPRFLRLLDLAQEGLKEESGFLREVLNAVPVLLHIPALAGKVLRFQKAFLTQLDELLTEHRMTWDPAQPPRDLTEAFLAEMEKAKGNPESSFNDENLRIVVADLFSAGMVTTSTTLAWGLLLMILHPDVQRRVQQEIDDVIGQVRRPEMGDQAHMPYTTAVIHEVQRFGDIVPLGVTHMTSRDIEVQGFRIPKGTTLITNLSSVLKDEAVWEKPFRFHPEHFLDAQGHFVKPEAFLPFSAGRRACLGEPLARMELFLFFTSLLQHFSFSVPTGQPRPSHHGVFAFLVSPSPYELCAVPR
CYP3A4, sequence (P08684 whole entry): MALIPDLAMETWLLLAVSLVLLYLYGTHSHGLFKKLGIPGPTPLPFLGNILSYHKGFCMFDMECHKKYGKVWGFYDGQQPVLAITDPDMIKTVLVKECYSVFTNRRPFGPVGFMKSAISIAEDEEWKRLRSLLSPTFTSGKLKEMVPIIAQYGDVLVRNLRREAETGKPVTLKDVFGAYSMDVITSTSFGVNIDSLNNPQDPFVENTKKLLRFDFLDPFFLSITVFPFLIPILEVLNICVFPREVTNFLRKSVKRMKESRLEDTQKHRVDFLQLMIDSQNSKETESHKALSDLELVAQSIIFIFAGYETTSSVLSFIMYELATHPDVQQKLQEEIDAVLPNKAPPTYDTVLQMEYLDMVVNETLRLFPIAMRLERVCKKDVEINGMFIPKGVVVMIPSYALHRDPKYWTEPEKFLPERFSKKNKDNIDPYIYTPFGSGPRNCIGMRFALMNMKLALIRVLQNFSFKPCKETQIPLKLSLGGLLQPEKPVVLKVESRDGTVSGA

As for `C#Cc1cccc(Nc2ncnc3cc(OCCOC)c(OCCOC)cc23)c1` [Erlotinib], the “metabolism by CYP3A4” value in data set [1] was “significantly metabolized”. For the same molecule, the “metabolism by CYP1A2” value in data set [2] was “significantly metabolized”. Besides, the “metabolism by CYP2D6” value in data set [3] (supersomes, at 60 min) is “significantly metabolized”. Also, the “Parent remain (%)” value in data set [4] (setting [7]) was 75 ± 3%; in data set [4] (setting [8]), 86 ± 9%; in data set [4] (setting [9]) it was 63 ± 2%; in data set [4] (setting [10]) it was 62 ± 13%. Also, the “RED Protein Binding, Binding (%)” value in data set [5] was found to be 96 ± 0%. In data set [6] (literature value ref Christiansen et al., 2009), the “plasma protein binding, % bound” value was 95%.

Take `CNCCC(Oc1ccc(C(F)(F)F)cc1)c1ccccc1` (stereo not drawn) [Fluoxetine]: the “Parent remain (%)” value in data set [4] (setting [11]) came out at 102 ± 1%; in data set [4] (4 h, 10 µM each, monitored drug + Erl + Los), 121 ± 3%; in data set [4] (setting [12]) it was 87 ± 10%; in data set [4] (4 h, 10 µM each, monitored drug + Gef + Los) it was 122 ± 16%; in data set [4] (setting [10]), 75 ± 9%. In data set [5], the “RED Protein Binding, Binding (%)” value worked out at 95 ± 1%. In data set [6] (literature value ref Van Harten 1993), the “plasma protein binding, % bound” value is listed as 95%.

Turning to `COc1cc2ncnc(Nc3ccc(F)c(Cl)c3)c2cc1OCCCN1CCOCC1` [Gefitinib], the drug remaining result in data set [3] (CYP2D6 supersomes) is recorded as “less than 80%”. In addition, the “Parent remain (%)” value in data set [4] (setting [7]) was 72 ± 10%; in data set [4] (setting [8]) it was 96 ± 4%; in data set [4] (setting [9]) it was 58 ± 3%; in data set [4] (setting [10]), 65 ± 2%. The “RED Protein Binding, Binding (%)” value in data set [5] was > 95%. In addition, the “plasma protein binding, % bound” value in data set [6] (literature value ref Li et al., 2006) is reported as ~ 97%.

Turning to `CCCCc1nc(Cl)c(CO)n1Cc1ccc(-c2ccccc2-c2nn[nH]n2)cc1` [Losartan], the “Parent remain (%)” value amounted to 89 ± 10% in data set [4] (setting [11]); 99 ± 4% in data set [4] (4 h, 10 µM each, monitored drug + Erl + Flx); 89 ± 4% in data set [4] (setting [12]); 112 ± 13% in data set [4] (4 h, 10 µM each, monitored drug + Gef + Flx); 77 ± 6% in data set [4] (setting [10]). Further, in data set [5], the “RED Protein Binding, Binding (%)” value is > 95%. The “plasma protein binding, % bound” value in data set [6] (literature value ref Sica et al., 2005) is on record as “greater than 98%”.
